Measured values as given in EP0258782A2, “Use of 1-(substituted mercapto-hydroxyethyl)-triazoles in the treatment of illnesses” (BAYER AG, priority 1986, dated 1988).
Values after ≈ are worked out from the molar mass of the structure shown.

Test system: Candida-Zellen
Experiment: Antimycotic in-vivo activity (oral) in mouse candidosis
Parameters: species or system Mäuse vom Typ SPF-CF1
Conditions: mice infected i.v. with Candida; 25-100 mg/kg oral, 1 h before and 7 h after infection
Method: Mäuse vom Typ SPF-CF₁ wurden intravenös mit 1 - 2 x 10⁶ logarithmisch wachsenden Candida-Zellen, die in physiologischer Kochsalzlösung suspendiert werden, infiziert. Eine Stunde vor und sieben Stunden nach der Infektion werden die Tiere mit jeweils 25 - 100 mg/kg Körpergewicht der Präparate oral behandelt.
Unbehandelte Tiere starben 3 bis 6 Tage post infektionem. Die Überlebensrate am 6.Tag post infektionem betrug bei unbehandelten Kontrolltieren etwa 5 %.

Row | Compound | Wirkung (Überlebende am 6. Tag p.i.)
1 | CC(C)SCC(O)(Cn1cncn1)C(C)(C)Cc1ccc(Br)cc1 (stereo not shown) [I-40] | +++ (= Wirkung = 60 % Überlebende am 6.Tag.p.i.)
2 | CC(C)SCC(O)(Cn1cncn1)C(C)(C)Cc1ccc(Cl)cc1 (stereo not shown) [I-46] | ++ (= schwache Wirkung = 40 % Überlebende am 6.Tag.p.i.)
3 | CCCSCC(O)(Cn1cncn1)C(C)(C)Cc1ccc(OC(F)(F)F)cc1 (stereo not shown) [I-51] | ++ (= schwache Wirkung = 40 % Überlebende am 6.Tag.p.i.)
4 | CCSCC(O)(Cn1cncn1)C(C)(C)Cc1ccc(OC(F)(F)F)cc1 (stereo not shown) [I-52] | ++++ (= gute Wirkung = 80 % Überlebende am 6.Tag.p.i.)
5 | CC(C)SCC(O)(Cn1cncn1)C(C)(C)Cc1ccc(SC(F)(F)F)cc1 (stereo not shown) [I-62] | ++ (= schwache Wirkung = 40 % Überlebende am 6.Tag.p.i.)
6 | CC(C)(Oc1ccc(-c2ccccc2)cc1)C(O)(CSc1ccc(Cl)cc1)Cn1cncn1 (stereo not shown) [I-93] | +++++ (= sehr gute Wirkung = 90 % Überlebende am 6.Tag.p.i.)
7 | Cc1cc(Cl)ccc1OC(C)(C)C(O)(CSc1ccc(Cl)cc1)Cn1cncn1 (stereo not shown) [I-94] | ++++ (= gute Wirkung = 80 % Überlebende am 6.Tag.p.i.)

Same assay, conditions: mouse candidosis, oral; statement in words

Row | Compound | Wirkung compared with (A) and (B)
8 | CC(C)SCC(O)(Cn1cncn1)C(C)(C)Cc1ccc(Br)cc1 (stereo not shown) [I-40] | bessere Wirkung
9 | CC(C)SCC(O)(Cn1cncn1)C(C)(C)Cc1ccc(Cl)cc1 (stereo not shown) [I-46] | bessere Wirkung
10 | CCCSCC(O)(Cn1cncn1)C(C)(C)Cc1ccc(OC(F)(F)F)cc1 (stereo not shown) [I-51] | bessere Wirkung
11 | CCSCC(O)(Cn1cncn1)C(C)(C)Cc1ccc(OC(F)(F)F)cc1 (stereo not shown) [I-52] | bessere Wirkung
12 | CC(C)SCC(O)(Cn1cncn1)C(C)(C)Cc1ccc(SC(F)(F)F)cc1 (stereo not shown) [I-62] | bessere Wirkung
13 | CC(C)(Oc1ccc(-c2ccccc2)cc1)C(O)(CSc1ccc(Cl)cc1)Cn1cncn1 (stereo not shown) [I-93] | bessere Wirkung
14 | Cc1cc(Cl)ccc1OC(C)(C)C(O)(CSc1ccc(Cl)cc1)Cn1cncn1 (stereo not shown) [I-94] | bessere Wirkung

Test system: Aspergillus fumigatus
Experiment: Antimycotic in-vitro activity, serial dilution test (MIC)
Type: cell-based
Conditions: Sabouraud's milieu d'epreuve, 28-37 °C, 96 h, inoculum 5 x 10^3 to 10^4 germs/ml, read-out: MHK-Werte in γ/ml Nährmedium, Aspergillus fumigatus
Method: (§1) Die in-vitro-Prüfungen wurden im Reihenverdünnungstest mit Keiminokula von durchschnittlich 5 x 10³ bis 10⁴ Keimen/ml Substrat durchgeführt. Als Nähmedium dienten • a) für Dermatophyten und Schimmelpilze: Sabouraud's milieu d'epreuve • b) für Hefen: Fleischextrakt-Traubenzucker-Bouillon.
(§2) Die Bebrütungstemperatur betrug 28 °C bis 37 °C, die Bebrütungsdauer lag bei 24 bis 96 Stunden bei Hefen und 96 Stunden bei Dermatophyten und Schimmelpilzen.

Row | MIC [µg/mL] | Compound
15 | < 1 | CC(C)SCC(O)(Cn1cncn1)C(C)(C)Cc1ccc(Br)cc1 (stereo not shown) [I-40]
16 | < 1 | CC(C)SCC(O)(Cn1cncn1)C(C)(C)Cc1ccc(Cl)cc1 (stereo not shown) [I-46]
17 | < 1 | CCCSCC(O)(Cn1cncn1)C(C)(C)Cc1ccc(OC(F)(F)F)cc1 (stereo not shown) [I-51]
18 | < 1 | CCSCC(O)(Cn1cncn1)C(C)(C)Cc1ccc(OC(F)(F)F)cc1 (stereo not shown) [I-52]
19 | 2 (≈ 4.61 µM) | CC(C)SCC(O)(Cn1cncn1)C(C)(C)Cc1ccc(SC(F)(F)F)cc1 (stereo not shown) [I-62]

Test system: Candida albicans
Experiment: as above
Type: cell-based
Conditions: Fleischextrakt-Traubenzucker-Bouillon, 28-37 °C, 24-96 h, inoculum 5 x 10^3 to 10^4 germs/ml, read-out: MHK-Werte in γ/ml Nährmedium, Candida albicans
Method: as §1, §2

Row | MIC [µg/mL] | Compound
20 | < 1 | CC(C)SCC(O)(Cn1cncn1)C(C)(C)Cc1ccc(Br)cc1 (stereo not shown) [I-40]
21 | < 1 | CC(C)SCC(O)(Cn1cncn1)C(C)(C)Cc1ccc(Cl)cc1 (stereo not shown) [I-46]
22 | < 1 | CCCSCC(O)(Cn1cncn1)C(C)(C)Cc1ccc(OC(F)(F)F)cc1 (stereo not shown) [I-51]
23 | < 1 | CCSCC(O)(Cn1cncn1)C(C)(C)Cc1ccc(OC(F)(F)F)cc1 (stereo not shown) [I-52]
24 | < 1 | CC(C)SCC(O)(Cn1cncn1)C(C)(C)Cc1ccc(SC(F)(F)F)cc1 (stereo not shown) [I-62]

Test system: Microsporum canis
Experiment: as above
Type: cell-based
Conditions: Sabouraud's milieu d'epreuve, 28-37 °C, 96 h, inoculum 5 x 10^3 to 10^4 germs/ml, read-out: MHK-Werte in γ/ml Nährmedium, Microsporum canis
Method: as §1, §2

Row | MIC [µg/mL] | Compound
25 | 2 (≈ 4.85 µM) | CC(C)SCC(O)(Cn1cncn1)C(C)(C)Cc1ccc(Br)cc1 (stereo not shown) [I-40]
26 | 4 (≈ 10.9 µM) | CC(C)SCC(O)(Cn1cncn1)C(C)(C)Cc1ccc(Cl)cc1 (stereo not shown) [I-46]
27 | < 1 | CCCSCC(O)(Cn1cncn1)C(C)(C)Cc1ccc(OC(F)(F)F)cc1 (stereo not shown) [I-51]
28 | 2 (≈ 4.96 µM) | CCSCC(O)(Cn1cncn1)C(C)(C)Cc1ccc(OC(F)(F)F)cc1 (stereo not shown) [I-52]
29 | < 1 | CC(C)SCC(O)(Cn1cncn1)C(C)(C)Cc1ccc(SC(F)(F)F)cc1 (stereo not shown) [I-62]

Test system: Trichophyton mentagr.
Experiment: as above
Type: cell-based
Conditions: Sabouraud's milieu d'epreuve, 28-37 °C, 96 h, inoculum 5 x 10^3 to 10^4 germs/ml, read-out: MHK-Werte in γ/ml Nährmedium, Trichophyton mentagr.
Method: as §1, §2

Row | MIC [µg/mL] | Compound
30 | < 1 | CC(C)SCC(O)(Cn1cncn1)C(C)(C)Cc1ccc(Br)cc1 (stereo not shown) [I-40]
31 | < 1 | CC(C)SCC(O)(Cn1cncn1)C(C)(C)Cc1ccc(Cl)cc1 (stereo not shown) [I-46]
32 | < 1 | CCCSCC(O)(Cn1cncn1)C(C)(C)Cc1ccc(OC(F)(F)F)cc1 (stereo not shown) [I-51]
33 | < 1 | CCSCC(O)(Cn1cncn1)C(C)(C)Cc1ccc(OC(F)(F)F)cc1 (stereo not shown) [I-52]
34 | < 1 | CC(C)SCC(O)(Cn1cncn1)C(C)(C)Cc1ccc(SC(F)(F)F)cc1 (stereo not shown) [I-62]

Test system: Torulopsis glabrata
Experiment: as above
Type: cell-based
Conditions: Nakaseomyces glabratus; Fleischextrakt-Traubenzucker-Bouillon; 28-37 °C, 24-96 h; inoculum 5 x 10^3 to 10^4 germs/ml; read-out: MHK-Werte in γ/ml Nährmedium, Torulopsis glabrata
Method: as §1, §2

Row | MIC [µg/mL] | Compound
35 | < 1 | CC(C)SCC(O)(Cn1cncn1)C(C)(C)Cc1ccc(Br)cc1 (stereo not shown) [I-40]
36 | < 1 | CC(C)SCC(O)(Cn1cncn1)C(C)(C)Cc1ccc(Cl)cc1 (stereo not shown) [I-46]
37 | < 1 | CCCSCC(O)(Cn1cncn1)C(C)(C)Cc1ccc(OC(F)(F)F)cc1 (stereo not shown) [I-51]
38 | 16 (≈ 39.7 µM) | CCSCC(O)(Cn1cncn1)C(C)(C)Cc1ccc(OC(F)(F)F)cc1 (stereo not shown) [I-52]
39 | < 1 | CC(C)SCC(O)(Cn1cncn1)C(C)(C)Cc1ccc(SC(F)(F)F)cc1 (stereo not shown) [I-62]

Test system: Trichophyton mentagrophytes
Experiment: In-vivo activity (local) in experimental guinea pig trichophytosis
Parameters: species or system Meerschweinchen der Rasse Pirbright-white
Conditions: 0,1 % solution in Dimethylsulfoxid : Glycerin = 1 : 4, local, once daily from day 3 p.i.
Text: Weiße Meerschweinchen der Rasse Pirbright-white wurden auf dem geschorenen, nicht skarifizierten Rücken mit einer Mikro- und Makrokoniden-Suspension von Trichophyton mentagrophytes infiziert.
Die infizierten Tiere wurden beginnend mit dem 3.Tag p.i. 1 x täglich mit einer 0,1 %igen Lösung der erdingungsgemäßen Präparate (in Dimethylsulfoxid : Glycerin = 1 : 4) lokal behandelt.
Bei unbehandelten Tieren entwickelte sich innerhalb von 12 Tagen p.i. das Typische Bild einer Dermatophytose mit Rötung, Schuppung und Haarausfall bis zum totalen Integument-Defekt an der Infektionsstelle.

Row | Compound | Wirkung (Infektionszeichen)
40 | CC(C)SCC(O)(Cn1cncn1)C(C)(C)Cc1ccc(Br)cc1 (stereo not shown) [I-40] | ++++ (gute Wirkung = geringe Rötung, vereinzelt Schuppen)
41 | CCSCC(O)(Cn1cncn1)C(C)(C)Cc1ccc(OC(F)(F)F)cc1 (stereo not shown) [I-52] | +++++

Same assay, conditions: guinea pig trichophytosis, local, 0,1 % solution; statement in words

Row | Compound | Wirkung (in words)
42 | CC(C)SCC(O)(Cn1cncn1)C(C)(C)Cc1ccc(Br)cc1 (stereo not shown) [I-40] | gute
43 | CCSCC(O)(Cn1cncn1)C(C)(C)Cc1ccc(OC(F)(F)F)cc1 (stereo not shown) [I-52] | sehr gute Wirkung
